Square brackets hold non-standard residues; d marks the D form.

The subject of one experiment is αvβ3. Particulars: cited from earlier work.
Experiment [1] has as its target integrin αvβ3 (Homo sapiens) (UniProt P06756). Particulars: cited from earlier work.
For experiment [2], the target named is T1, DNA:PNA-D5 (15 c(RGDfK) ligands) (also: 15 copies conjugated via PEG/squarate linker to LKγ-PNA:DNA scaffold).
T1 chain: cyclo(RGD[dF]K)
Nature of the experiment: 125I-echistatin competitive displacement on C32 cells.

On to Echistatin, for which the “echistatin association constant for binding to αvβ3 integrin” value in the experiment with αvβ3 (published value, fixed in the fit) was 3.33e+09 M. In addition, the Kd at αvβ3 (read-out: Kd of echistatin for αvβ3) was 0.3 nM.
For the molecule echistatin (from UniProt P17347), the Kd in experiment [1] was 0.3 nM.

B1: integrin αvβ3 (protein)
chain 1: FNLDVDSPAEYSGPEGSYFGFAVDFFVPSASSRMFLLVGAPKANTTQPGIVEGGQVLKCDWSSTRRCQPIEFDATGNRDYAKDDPLEFKSHQWFGASVRSKQDKILACAPLYHWRTEMKQEREPVGTCFLQDGTKTVEYAPCRSQDIDADGQGFCQGGFSIDFTKADRVLLGGPGSFYWQGQLISDQVAEIVSKYDPNVYSIKYNNQLATRTAQAIFDDSYLGYSVAVGDFNGDGIDDFVSGVPRAARTLGMVYIYDGKNMSSLYNFTGEQMAAYFGFSVAATDINGDDYADVFIGAPLFMDRGSDGKLQEVGQVSVSLQRASGDFQTTKLNGFEVFARFGSAIAPLGDLDQDGFNDIAIAAPYGGEDKKGIVYIFNGRSTGLNAVPSQILEGQWAARSMPPSFGYSMKGATDIDKNGYPDLIVGAFGVDRAILYRARPVITVNAGLEVYPSILNQDNKTCSLPGTALKVSCFNVRFCLKADGKGVLPRKLNFQVELLLDKLKQKGAIRRALFLYSRSPSHSKNMTISRGGLMQCEELIAYLRDESEFRDKLTPITIFMEYRLDYRTAADTTGLQPILNQFTPANISRQAHILLDCGEDNVCKPKLEVSVDSDQKKIYIGDDNPLTLIVKAQNQGEGAYEAELIVSIPLQADFIGVVRNNEALARLSCAFKTENQTRQVVCDLGNPMKAGTQLLAGLRFSVHQQSEMDTSVKFDLQIQSSNLFDKVSPVVSHKVDLAVLAAVEIRGVSSPDHVFLPIPNWEHKENPETEEDVGPVVQHIYELRNNGPSSFSKAMLHLQWPYKYNNNTLLYILHYDIDGPMNCTSDMEINPLRIKISSLQTTEKNDTVAGQGERDHLITKRDLALSEGDIHTLGCGVAQCLKIVCQVGRLDRGKSAILYVKSLLWTETFMNKENQNHSYSLKSSASFNVIEFPYKNLPIEDITNSTLVTTNVTWGIQPAPMPV
chain 2: GPNICTTRGVSSCQQCLAVSPMCAWCSDEALPLGSPRCDLKENLLKDNCAPESIEFPVSEARVLEDRPLSDKGSGDSSQVTQVSPQRIALRLRPDDSKNFSIQVRQVEDYPVDIYYLMDLSYSMKDDLWSIQNLGTKLATQMRKLTSNLRIGFGAFVDKPVSPYMYISPPEALENPCYDMKTTCLPMFGYKHVLTLTDQVTRFNEEVKKQSVSRNRDAPEGGFDAIMQATVCDEKIGWRNDASHLLVFTTDAKTHIALDGRLAGIVQPNDGQCHVGSDNHYSASTTMDYPSLGLMTEKLSQKNINLIFAVTENVVNLYQNYSELIPGTTVGVLSMDSSNVLQLIVDAYGKIRSKVELEVRDLPEELSLSFNATCLNNEVIPGLKSCMGLKIGDTVSFSIEAKVRGCPQEKEKSFTIKPVGFKDSLIVQVTFDCDCACQAQAEPNSHRCNNGNGTFECGVCRCGPGWLGSQCECSEEDYRPSQQDECSPREGQPVCSQRGECLCGQCVCHSSDFGKITGKYCECDDFSCVRYKGEMCSGHGQCSCGDCLCDSDWTGYYCNCTTRTDTCMSSNGLLCSGRGKCECGSCVCIQPGSYGDTCEKCPTCPDACTFKKECVECKKFDRGALHDENTCNRYCRDEIESVKELKDTGKDAVNCTYKNEDDCVVRFQYYEDSSGKSILYVVEEPECPKGPD
The molecule B1 had a Kd in experiment [2] of 0.16 nM.

The values above are taken from publication PMC3518395 (Nature communications, 2012).
